{"source": "patent US9012655B2", "about": "“Antimicrobial/adjuvant compounds and methods” (Denouamed, Inc., priority 2011, dated 2015)", "key": {"[1]": {"tested_on": "Methicillin-Resistant Staph. aureus (MRSA)", "test": "MIC, NCCLS M7-A6 broth microdilution, MRSA", "assay_type": "cell-based", "details": "16 to 20 h, 35 degrees Celsius; for MIC: Staphylococcus aureus, MRSA", "protocol": "(§1) Susceptibilities to the compounds were determined using the National Committee for Clinical Laboratory Standards (NCCLS) M7-A6 broth microdilution method. Cation-adjusted Mueller-Hinton broth (Ca^2+, 25 μg/mL; Mg^2+, 12.5 μg/mL) microdilution panels were prepared to contain antimicrobial doubling dilution concentrations of an appropriate range. DMSO (dimethylsulfoxide) controls were incorporated into the panel to mimic the quantity of DMSO used in dissolving some of the compounds at the higher concentrations. Each final panel well volume was 100 μL with a bacterial inoculum of 5×10^5 CFU (colony forming units)/mL of the relevant bacterium. Panels were read following 16 to 20 h of incubation at 35 degrees Celsius in ambient air. The MIC (minimum inhibitory concentration) was defined as the lowest concentration of antimicrobial inhibiting visible growth."}, "E. coli D22": {"tested_on": "E. coli D22", "test": "MIC, NCCLS M7-A6 broth microdilution, E. coli D22", "assay_type": "cell-based", "details": "35 degrees Celsius; for MIC: Escherichia coli, D22, 16 to 20 h; for MIC E coli D22: 16 to 20 h", "protocol": "as §1"}, "AcpS enzyme": {"molecular_target": "AcpS enzyme (Escherichia coli, UniProt P24224)", "sequence (P24224 whole entry)": "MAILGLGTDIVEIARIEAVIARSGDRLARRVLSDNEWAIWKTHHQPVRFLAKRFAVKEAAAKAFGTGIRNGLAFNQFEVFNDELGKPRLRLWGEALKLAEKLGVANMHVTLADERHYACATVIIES", "test": "Measurement of AcpS inhibition ([3H]acetyl-CoA incorporation into apo-ACP)", "assay_type": "biochemical", "details": "% activity vs blank-subtracted counts; for remaining activity at 500 µM / % AcpS activity @ 500 uM: test compound 500 uM; for activity at 50 µM / % AcpS activity at 50 uM: test compound 50 uM", "protocol": "[^3H]Acetyl-CoA was mixed as 1 volume of Perkin Elmer NET290 radiolabeled stock (e.g. 0.1 mCi/ml, 3.7 Ci/mmol in Na-acetate, pH 4.5-5.0=27 μM) with 1.2 volumes of 1 mM unlabelled acetyl-CoA (Sigma). Trichloroacetic acid was prepared as a 10% w/v solution. Bovine serum albumin was prepared as a 25 mg/ml solution in water. DTT was prepared as a 50 mM solution in water.\n• 1. A standard reaction contained the following in a total volume of 10 μl:\n• 2. Tubes were incubated at RT. [^3H]acetyl-CoA was added last to start the reaction. To stop the reaction, 2 μl was removed to a 1.5-ml microfuge tube containing 800 μl cold 10% TCA. Up to four time points were collected for each reaction, e.g. at 5 min, 10 min, 30 min, and 60 min. • 3. 20 μl of 25 mg/ml BSA was added to each tube, mixed and incubated on ice for 10 min, then centrifuged at 12,000 g for 5 min to form a pellet. Supernatant was removed using P1000. • 4. Each pellet was washed twice with 800 μl of cold 10% TCA each time, then centrifuged at 12,000 g for 5 min after each wash. The supernatant was discarded. Each pellet was resuspended in 50 μl of formic acid. The suspension was transferred to a scintillation vial and radioactivity was measured in 2 ml of liquid scintillation cocktail.\nThe random (stochastic) error in scintillation counting is proportional to the square root of the counts (not dpm) accumulated in the counting period; i.e. 10% for 100, 3.3% for 1,000, 1% for 10,000, etc. Provided radioactive counts (dpm) are in the thousands, the assay provides useful data. Results are reported in terms of % activity with respect to the blank-subtracted counts for working substrate. A % activity of less than about 40% is indicative of AcpS enzyme inhibition by the test compound at that concentration."}}, "data": [{"smiles": "Cc1ccc(-c2ccc(-c3ccc(C)c4ccccc34)c(-c3nnn[nH]3)c2)c2ccccc12", "note": "[DNM0446, 5-(2,5-Bis(4-methylnaphthalen-1-yl)phenyl)-1H-tetrazole]", "values": [{"measurement": "MIC", "setting": "[1]", "value": 4, "unit": "µM"}, {"measurement": "MIC", "setting": "E. coli D22", "value": "> 125", "unit": "µM"}, {"measurement": "remaining activity at 500 µM", "setting": "AcpS enzyme", "value": 25.4, "unit": "%"}]}, {"smiles": "Cc1cc(Cl)ccc1-c1ccc(-c2ccc(Cl)cc2C)c(-c2nnn[nH]2)c1", "note": "[DNM0447, 5-(2,5-Bis(4-chloro-2-methylphenyl)phenyl)-1H-tetrazole]", "values": [{"measurement": "MIC", "setting": "[1]", "value": 15, "unit": "µM"}, {"measurement": "MIC", "setting": "E. coli D22", "value": "> 125", "unit": "µM"}, {"measurement": "activity at 50 µM", "setting": "AcpS enzyme", "value": 32.6, "unit": "%"}, {"measurement": "remaining activity at 500 µM", "setting": "AcpS enzyme", "value": 0.47, "unit": "%"}]}, {"smiles": "c1ccc(Oc2ccc(-c3ccc(-c4ccc(Oc5ccccc5)cc4)c(-c4nn[nH]n4)c3)cc2)cc1", "note": "[DNM0453]", "values": [{"measurement": "MIC MRSA", "setting": "[1]", "value": 8, "unit": "µM"}, {"measurement": "MIC E coli D22", "setting": "E. coli D22", "value": ">125", "unit": "µM"}, {"measurement": "% AcpS activity @ 500 uM", "setting": "AcpS enzyme", "value": 23.76, "unit": "%"}]}, {"smiles": "Cc1cc(Cl)ccc1-c1cc(-c2nn[nH]n2)cc(-c2ccc(Cl)cc2C)c1", "note": "[DNM0457]", "values": [{"measurement": "MIC MRSA", "setting": "[1]", "value": 8, "unit": "µM"}, {"measurement": "MIC E coli D22", "setting": "E. coli D22", "value": 60, "unit": "µM"}, {"measurement": "% AcpS activity at 50 uM", "setting": "AcpS enzyme", "value": 1.56, "unit": "%"}, {"measurement": "% AcpS activity @ 500 uM", "setting": "AcpS enzyme", "value": 0, "unit": "%"}]}, {"smiles": "Cc1ccc(-c2cc(-c3nn[nH]n3)cc(-c3ccc(C)c4ccccc34)c2)c2ccccc12", "note": "[DNM0461, 5-(3,5-Bis(4-methylnaphthalen-1-yl)phenyl)-2H-tetrazole]", "values": [{"measurement": "MIC", "setting": "[1]", "value": 1, "unit": "µM"}, {"measurement": "MIC", "setting": "E. coli D22", "value": "> 125", "unit": "µM"}, {"measurement": "activity at 50 µM", "setting": "AcpS enzyme", "value": 13.4, "unit": "%"}, {"measurement": "remaining activity at 500 µM", "setting": "AcpS enzyme", "value": 0.85, "unit": "%"}]}, {"smiles": "c1ccc(-c2ccccc2-c2cc(-c3nn[nH]n3)cc(-c3ccccc3-c3ccccc3)c2)cc1", "note": "[DNM0464]", "values": [{"measurement": "MIC MRSA", "setting": "[1]", "value": 1, "unit": "µM"}, {"measurement": "MIC E coli D22", "setting": "E. coli D22", "value": ">125", "unit": "µM"}, {"measurement": "% AcpS activity at 50 uM", "setting": "AcpS enzyme", "value": 9.03, "unit": "%"}, {"measurement": "% AcpS activity @ 500 uM", "setting": "AcpS enzyme", "value": 0.28, "unit": "%"}]}, {"smiles": "Clc1ccc(-c2cc(-c3ccc(Cl)cc3)cc(-c3nn[nH]n3)c2)cc1", "note": "[DNM0470, 5-(3,5-Bis(4-chlorophenyl)phenyl)-2H-tetrazole]", "values": [{"measurement": "MIC", "setting": "[1]", "value": 4, "unit": "µM"}, {"measurement": "MIC", "setting": "E. coli D22", "value": 125, "unit": "µM"}, {"measurement": "remaining activity at 500 µM", "setting": "AcpS enzyme", "value": 27.7, "unit": "%"}]}, {"smiles": "Clc1ccc(-c2cc(-c3nn[nH]n3)cc(-c3ccccc3-c3ccccc3)c2)cc1", "note": "[DNM0479]", "values": [{"measurement": "MIC MRSA", "setting": "[1]", "value": 2, "unit": "µM"}, {"measurement": "MIC E coli D22", "setting": "E. coli D22", "value": ">125", "unit": "µM"}, {"measurement": "% AcpS activity at 50 uM", "setting": "AcpS enzyme", "value": 12.79, "unit": "%"}, {"measurement": "% AcpS activity @ 500 uM", "setting": "AcpS enzyme", "value": 0.1, "unit": "%"}]}, {"smiles": "Cc1ccc(-c2cc(-c3ccc(Cl)cc3)cc(-c3nnn[nH]3)c2)c2ccccc12", "note": "[DNM0480, 5-(4′-Chloro-5-(4-methylnaphthalen-1-yl)biphenyl-3-yl)-1H-tetrazole]", "values": [{"measurement": "MIC", "setting": "[1]", "value": 4, "unit": "µM"}, {"measurement": "MIC", "setting": "E. coli D22", "value": 125, "unit": "µM"}, {"measurement": "activity at 50 µM", "setting": "AcpS enzyme", "value": 7.35, "unit": "%"}, {"measurement": "remaining activity at 500 µM", "setting": "AcpS enzyme", "value": 2.04, "unit": "%"}]}, {"smiles": "Cc1ccc(-c2cc(-c3nnn[nH]3)sc2-c2ccc(C)c3ccccc23)c2ccccc12", "note": "[DNM0486, 5-(4,5-Bis(4-methylnaphthalen-1-yl)thiophen-2-yl)-1H-tetrazole]", "values": [{"measurement": "MIC", "setting": "[1]", "value": 2, "unit": "µM"}, {"measurement": "MIC", "setting": "E. coli D22", "value": "> 125", "unit": "µM"}, {"measurement": "activity at 50 µM", "setting": "AcpS enzyme", "value": 0.82, "unit": "%"}, {"measurement": "remaining activity at 500 µM", "setting": "AcpS enzyme", "value": 0.16, "unit": "%"}]}, {"smiles": "c1ccc(-c2ccccc2-c2cc(-c3nnn[nH]3)sc2-c2ccccc2-c2ccccc2)cc1", "note": "[DNM0489, 5-(4,5-Di(biphenyl-2-yl)thiophen-2-yl)-1H-tetrazole]", "values": [{"measurement": "MIC", "setting": "[1]", "value": 2, "unit": "µM"}, {"measurement": "MIC", "setting": "E. coli D22", "value": "> 125", "unit": "µM"}, {"measurement": "activity at 50 µM", "setting": "AcpS enzyme", "value": 17.9, "unit": "%"}, {"measurement": "remaining activity at 500 µM", "setting": "AcpS enzyme", "value": 0, "unit": "%"}]}, {"smiles": "Clc1cccc(-c2ccccc2-c2cc(-c3nn[nH]n3)cc(-c3ccccc3-c3cccc(Cl)c3)c2)c1", "note": "[DNM0493]", "values": [{"measurement": "MIC MRSA", "setting": "[1]", "value": 4, "unit": "µM"}, {"measurement": "MIC E coli D22", "setting": "E. coli D22", "value": ">125", "unit": "µM"}, {"measurement": "% AcpS activity at 50 uM", "setting": "AcpS enzyme", "value": 25.28, "unit": "%"}, {"measurement": "% AcpS activity @ 500 uM", "setting": "AcpS enzyme", "value": 2.7, "unit": "%"}]}, {"smiles": "Cc1ccc(-c2cc(-c3nnn[nH]3)sc2-c2ccc(C)c(Cl)c2)cc1Cl", "note": "[DNM0504, 5-(4,5-Bis(3-chloro-4-methylphenyl)thiophen-2-yl)-1H-tetrazole]", "values": [{"measurement": "MIC", "setting": "[1]", "value": 125, "unit": "µM"}, {"measurement": "MIC", "setting": "E. coli D22", "value": 125, "unit": "µM"}, {"measurement": "activity at 50 µM", "setting": "AcpS enzyme", "value": 7.33, "unit": "%"}, {"measurement": "remaining activity at 500 µM", "setting": "AcpS enzyme", "value": 0.16, "unit": "%"}]}, {"smiles": "Fc1ccc(-c2cc(-c3nnn[nH]3)sc2Cc2ccc(Cl)cc2)c2ccccc12", "note": "[DNM0587, 5-(5-(4-Chlorobenzyl)-4-(4-fluoronaphthalen-1-yl)thiophen-2-yl)-1H-tetrazole]", "values": [{"measurement": "MIC", "setting": "[1]", "value": 8, "unit": "µM"}, {"measurement": "activity at 50 µM", "setting": "AcpS enzyme", "value": 2.13, "unit": "%"}, {"measurement": "remaining activity at 500 µM", "setting": "AcpS enzyme", "value": 0, "unit": "%"}]}, {"smiles": "Clc1ccc(Cc2sc(-c3nnn[nH]3)cc2-c2ccccc2-c2ccccc2)cc1", "note": "[DNM0588, 5-(4-(Biphenyl-2-yl)-5-(4-chlorobenzyl)thiophen-2-yl)-1H-tetrazole]", "values": [{"measurement": "MIC", "setting": "[1]", "value": 8, "unit": "µM"}, {"measurement": "activity at 50 µM", "setting": "AcpS enzyme", "value": 2.67, "unit": "%"}, {"measurement": "remaining activity at 500 µM", "setting": "AcpS enzyme", "value": 0, "unit": "%"}]}]}
